Molecules are shown by their SMILES. Values after ≈ are worked out from the molar mass of the structure shown.

One series concerns the target human IRAK4 (Homo sapiens (Human), UniProt Q9NWZ3). The series can be described thus: IRAK4 enzymatic assay (Transcreener fluorescence polarization, ADP detection). Type of series: biochemical. The conditions noted are these: recombinant full-length IRAK4; 125 uM ATP; 90 min. The method, then: Compounds were assayed for inhibition of human IRAK4 and IRAK1 catalytic activity using recombinant enzyme produced from insect cells. Full-length IRAK4 protein, carrying an N-terminal His6-Tag, was obtained from Life Technologies (Carlsbad, Calif., USA). The IRAK1 construct was produced internally and was comprised of IRAK1 residues Arg194 to Ser712, preceded by an NH2-terminal His6 tag and the coding sequence for glutathione-S-transferase.
Kinase activities were assayed using the Transcreener-Fluorecescence polarization platform (BelBrook Labs, Madison, Wis., USA) that measures amounts of the reaction product, ADP. […] Final IRAK4 assay conditions were 1.25 nM IRAK4; 125 uM ATP; 10 uM MgC2; 125 uM peptide in reaction buffer (25 mM HEPES (pH7.4); 2 mM Dithiothreitol; 0.015% Brij-35; and 0.5% dimethyl sulfoxide. The IRAK1 activity was optimized similarly, yielding final assay conditions of […] IRAK1; 62.5 uM ATP; 5 uM MgCl2, and 62.5 uM IRAK1 peptide in reaction buffer for 60 min.
Assays of compounds for kinase inhibition were performed using inhibitors serially-diluted in dimethyl sulfoxide, which was accomplished with a LabCyte Echo 555 liquid dispenser. 384 well assay plates spotted with compound received 4 ul of a 2× substrate (ATP+peptide) mix in reaction buffer, followed by 4 ul of 2× enzyme diluted in reaction buffer. Reactions were halted at 60 (IRAK1) or 90 (IRAK4) min by addition of 6 ul of detection buffer, containing EDTA ([…] final concentration), 0.95 ug of the ADP-binding antibody ADP2, ADP tracer (3 nM final concentration), and […] HEPES. Following a 1 hr incubation, fluorescence polarization of the ADP2-antibody::TRACER complex was read on a Tecan M1000 plate reader using a 635/20 excitation filter in combination with a 670/20 emission filter. Delta milli-P values were analyzed using Genedata software to fit dose-response curves and compute compound Ki values, using ATP Km values of 642 um and 83.2 uM for IRAK4 and IRAK1, respectively. Table 3 provides IRAK4 Ki values for representative compounds of the present invention.
On the technique in general: Fluorescence polarisation rises when a labelled molecule tumbles more slowly, as on binding a larger partner.

A short description of series [1]: Plasma protein binding using rapid equilibrium dialysis (RED). Type of series: in vitro ADME. The conditions noted are these: pH 7.4, human plasma, 37° C., read-out: Human PPB (converted). On the procedure: Plasma protein binding was measured in duplicate using rapid equilibrium dialysis (RED) device ((Thermo Scientific Pierce) in a 96-well format. Briefly, 10.0 μL drug or control compounds (0.5 mM in DMSO) was mixed with 1000 μL plasma (pH adjusted to 7.4) from various species (BioreclamationIVT). Aliquots of 300 μL drug/plasma mixture were placed into the donor side chamber of a single-use RED plate, and 500 μL aliquots of PBS buffer were placed into the adjacent chamber as the receiver side. The plate was incubated on an orbital shaker at 400 rpm, at 37° C. for 4 hours. After completion of incubation, 50 μL aliquots from the PBS buffer side were mixed with 5 μL of blank plasma matrix, and 5 μL from the donor side (plasma) were mixed with 50 μL blank PBS buffer. All samples were then crashed with 200 μL acetonitrile (containing internal standard) to precipitate plasma proteins. The samples were centrifuged at 3750 rpm for 10 min to pellet the proteins. The supernatants were carefully transferred to a fresh 96-well plate, and diluted with an equivalent volume of water. The samples were then analyzed by LC-MS/MS (ABI 4000, ABI Sciex). Data acquisition and processing was performed with Analyst 1.6.1 and Multiquant 2.1. The percent of protein binding and fraction unbound (fu) in matrix was calculated from taking the ratio of responses (peak areas) on the receiver side (buffer) to those on the donor side (plasma). The ratios were normalized to the internal standard.
In general terms: Equilibrium dialysis compares concentrations on both sides of a semipermeable membrane.

The next series in a line: Kinetic solubility assay. Type of series: physicochemical. The conditions noted are these: for solubility kinetic at 24 h: PBS buffer with 2% DMSO, aqueous buffer, kinetic from dmso stock, PBS buffer pH 7.4, 2% DMSO, 24 hours shaking at room temperature, UHPLC-CLND; for Fold improvement in kinetic solubility: example compound versus its matched pair phenyl compound. The method, then: The kinetic solubility assay started with compound DMSO stock solutions. This assay used Millipore Multiscreen 96-well filter plates for the 24 hour equilibration shaking. Samples were prepared by adding 4 μL of the 10 mM compound DMSO stock solutions into 196 μL of PBS buffer pH 7.4 in the 96-well filter plates, yielding a compound concentration of 200 μM and 2% DMSO. The filter plate was sealed with aluminum sealing film and shaken at room temperature for 24 hours at 1000 rpm. When shaking has completed, the solutions were filtered into a clean 96-well plate utilizing a vacuum manifold. After filtration, some precipitate is often observed at the bottom of the filtration plate wells. Most of the precipitates appear to be crystalline under a polarizing light microscope. The filtrate samples were diluted by a factor of 2 using PBS pH7.4 buffer and then transferred to a 384-well plate for analysis by UHPLC-CLND (CLND: Chemiluminescence nitrogen detector). 5 μL of each sample was injected twice into the UHPLC-CLND for two repeat analysis.
Samples were detected and analyzed using UV 254 nm and CLND. UV 254 nm is used primarily to confirm the sample purity but in rare cases, is also used to quantify the concentration of compounds with no nitrogens, where additional work is done to create a compound specific calibration curve. The identification of CLND target peaks of each compound were confirmed by LCMS. Sample quantification was accomplished by CLND peak intensity, the calibration curve, and the number of nitrogen contained in the compound. One calibration curve of caffeine was used for solubility quantitative determination. A fresh calibration curve was created for every batch. The number of nitrogens in a compound used for this quantification was corrected for the actual configuration of the nitrogen in the compound.

Chain of human IRAK4 (Q9NWZ3 whole entry, the tested form may be a part): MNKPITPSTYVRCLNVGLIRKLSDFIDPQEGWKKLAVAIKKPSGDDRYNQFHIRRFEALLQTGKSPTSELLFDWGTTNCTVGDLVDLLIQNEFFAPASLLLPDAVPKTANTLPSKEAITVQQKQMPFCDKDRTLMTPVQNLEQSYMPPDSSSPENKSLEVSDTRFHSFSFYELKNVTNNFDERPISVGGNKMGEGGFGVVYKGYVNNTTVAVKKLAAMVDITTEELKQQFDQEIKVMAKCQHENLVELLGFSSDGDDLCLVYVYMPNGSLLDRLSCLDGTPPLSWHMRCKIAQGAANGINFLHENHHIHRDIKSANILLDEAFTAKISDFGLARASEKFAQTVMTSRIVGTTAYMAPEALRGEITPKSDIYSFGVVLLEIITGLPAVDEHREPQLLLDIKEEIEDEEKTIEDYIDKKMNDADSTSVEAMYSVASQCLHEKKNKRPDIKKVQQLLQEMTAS

For the compound `Cc1cnc2c(C(=O)Nc3cc4c(nc3N3CCN(CC(N)=O)CC3)O[C@@](C)(CO)C4)cnn2c1` (single isomer, unassigned) [Example 16], the Ki (in general, a measure of affinity in units of concentration, obtained from inhibition or displacement) at human IRAK4 turned out to be 0.0055 µM. Same read-out and setting: in the case of `CC(C)(O)[C@@]1(C)Cc2cc(NC(=O)c3cnn4cccnc34)c(N3CCOCC3)nc2O1` (single isomer, unassigned) [Example 14] it was 0.048 µM; in that of `CC(C)(O)[C@]1(C)Cc2cc(NC(=O)c3cnn4cccnc34)c(N3CCOCC3)nc2O1` (single isomer, unassigned) [Example 13], 0.091 µM. For `CC1(C)Cc2cc(NC(=O)c3cnn4cccnc34)c(N3CCOCC3)nc2O1` [Example 1, N-(2,2-dimethyl-6-morpholino-2,3-dihydrofuro[2,3-b]pyridin-5-yl)pyrazolo[1,5-a]pyrimidine-3-carboxamide], the fraction unbound at 4 h, 5 µM in series [1] is 0.143. Also, in “Kinetic solubility assay”, the solubility (kinetic) (usually solubility judged after dilution from a stock solution rather than from solid) at 24 h stood at 166 µM (≈ 65.5 µg/mL) and the “Fold improvement in kinetic solubility” value is recorded as 166.0. The inhibition constant Ki at human IRAK4 is 0.039 µM.

For `C[C@@]1(CO)Cc2cc(NC(=O)c3cnn4cccnc34)c(N3CCN(CC(F)F)CC3)nc2O1` (stereo in doubt) [Example 20, N-[rac-(2S)-6-[4-(2,2-difluoroethyl)piperazin-l-yl]-2-(hydroxymethyl)-2-methyl-3H-furo[2,3-b]pyridin-5-yl]pyrazolo[1,5-a]pyrimidine-3-carboxamide], the Ki on human IRAK4 was found to be 0.0091 µM.

Take `CC1(CO)Cc2cc(NC(=O)c3cnn4cccnc34)c(N3CCOCC3)nc2O1` (stereo in doubt) [Example 10, (S)—N-(2-(Hydroxymethyl)-2-methyl-6-morpholino-2,3-dihydrofuro[2,3-b]pyridin-5-yl)pyrazolo[1,5-a]pyrimidine-3-carboxamide]: in “Kinetic solubility assay”, the solubility (kinetic) at 24 h was determined as 159 µM (≈ 65.3 µg/mL) and the “Fold improvement in kinetic solubility” value is listed as 15.9. Moreover, the Ki on human IRAK4 was determined as 0.088 µM. As for `CC1(C)Cc2cc(NC(=O)c3cnn4cccnc34)c(OCC3CC3)nc2O1` [Example 17, N-[6-(cyclopropylmethoxy)-2,2-dimethyl-3H-furo[2,3-b]pyridin-5-yl]pyrazolo[1,5-a]pyrimidine-3-carboxamide], the Ki on human IRAK4 came to 0.0064 µM. In the case of `CC1(CO)Cc2cc(NC(=O)c3cnn4cccnc34)c(N3CCOCC3)nc2O1` (stereo in doubt) [Example 11, (R)—N-(2-(hydroxymethyl)-2-methyl-6-morpholino-2,3-dihydrofuro[2,3-b]pyridin-5-yl)pyrazolo[1,5-a]pyrimidine-3-carboxamide], in “Kinetic solubility assay”, the “Fold improvement in kinetic solubility” value is reported as 13.7.

As to `C[C@@]1(O)COc2nc(N3CCN(CC(F)F)CC3)c(NC(=O)c3cnn4cccnc34)cc2C1` (stereo in doubt) [Example 19, N-[rac-(3S)-7-[4-(2,2-difluoroethyl)piperazin-l-yl]-3-hydroxy-3-methyl-2,4-dihydropyrano[2,3-b]pyridin-6-yl]pyrazolo[1,5-a[pyrimidine-3-carboxamide], in the series “Kinetic solubility assay”, the kinetic solubility at 24 h amounted to 177 µM (≈ 83.8 µg/mL) and the “Fold improvement in kinetic solubility” value stood at 31.6. Further, on human IRAK4, the inhibition constant Ki stood at 0.031 µM.

In the series “Kinetic solubility assay”, `C[C@@]1(CO)Cc2cc(NC(=O)c3cnn4cccnc34)c(N3CCOCC3)nc2O1` (single isomer, unassigned) [Example 11] yielded a kinetic solubility at 24 h of 137 µM (≈ 56.2 µg/mL). Further, on human IRAK4, the Ki came to 0.045 µM.

Consider `Cc1cnc2c(C(=O)Nc3cc4c(nc3N3CCC(CO)CC3)OC(C)(C)C4)cnn2c1` [Example 3, N-(6-(4-(Hydroxymethyl)piperidin-1-yl)-2,2-dimethyl-2,3-dihydrofuro[2,3-b]pyridin-5-yl)-6-methylpyrazolo[1,5-a]pyrimidine-3-carboxamide], for which, in “Kinetic solubility assay”, the kinetic solubility at 24 h came out at 7.5 µM (≈ 3.27 µg/mL) and the “Fold improvement in kinetic solubility” value was determined as 7.5. For the same compound, the Ki on human IRAK4 is 0.0041 µM. The corresponding values for `CC1(C)Cc2cc(NC(=O)c3cnn4cccnc34)c(N3CCC(F)(CO)CC3)nc2O1` [Example 5, N-[6-[4-Fluoro-4-(hydroxymethyl)-1-piperidyl]-2,2-dimethyl-3H-furo[2,3-b]pyridin-5-yl]pyrazolo[1,5-a]pyrimidine-3-carboxamide] are 112 µM (≈ 49.3 µg/mL), 43.1 and 0.0056 µM. The corresponding values for `C[C@]1(O)COc2nc(N3CCN(CC(F)F)CC3)c(NC(=O)c3cnn4cccnc34)cc2C1` (stereo in doubt) [Example 18, N-[rac-(3R)-7-[4-(2,2-difluoroethyl)piperazin-l-yl]-3-hydroxy-3-methyl-2,4-dihydropyrano[2,3-b]pyridin-6-yl]pyrazolo[1,5-a]pyrimidine-3-carboxamide] are 167 µM (≈ 79.1 µg/mL), 12.8 and 0.21 µM.

With `CC1(C)Cc2cc(NC(=O)c3cnn4cccnc34)c(N3CCOC[C@H]3CO)nc2O1` (single isomer, unassigned) [Example 7], the inhibition constant (Ki) on human IRAK4 was determined as 2.4 µM. As to `CC1(C)Cc2cc(NC(=O)c3cnn4cccnc34)c(N3CCC(CO)CC3)nc2O1` [Example 2, N-(6-(4-(Hydroxymethyl)piperidin-1-yl)-2,2-dimethyl-2,3-dihydrofuro[2,3-b]pyridin-5-yl)pyrazolo[1,5-a]pyrimidine-3-carboxamide], the fraction unbound at 4 h, 5 µM in series [1] is 0.074. Moreover, on human IRAK4, the inhibition constant Ki turned out to be 0.0042 µM.

Take `CC1(C)Cc2cc(NC(=O)c3cnn4cccnc34)c(N3CCOC[C@@H]3CO)nc2O1` (single isomer, unassigned) [Example 8]: the inhibitory constant (Ki) at human IRAK4 stood at 0.82 µM.

For the compound `CN1Cc2cc(NC(=O)c3cnn4cccnc34)c(N3CCOCC3)nc2C1=O` [Example 12, N-(6-Methyl-2-morpholino-7-oxo-6,7-dihydro-5H-pyrrolo[3,4-b]pyridin-3-yl)pyrazolo[1,5-a]pyrimidine-3-carboxamide], in the series “Kinetic solubility assay”, the solubility (kinetic) at 24 h came to 39 µM (≈ 15.3 µg/mL) and the “Fold improvement in kinetic solubility” value is 5.7. In addition, the Ki on human IRAK4 came to 0.54 µM. For `Cc1cnc2c(C(=O)Nc3cc4c(nc3N3CCN(CC(N)=O)CC3)O[C@](C)(CO)C4)cnn2c1` (single isomer, unassigned) [Example 15], on human IRAK4, the inhibitory constant (Ki) was 0.0066 µM. Consider `CC1(C)Cc2cc(NC(=O)c3cnn4cccnc34)c(N3CCN(CCO)CC3)nc2O1` [Example 4, N-(6-(4-(2-Hydroxyethyl)piperazin-1-yl)-2,2-dimethyl-2,3-dihydrofuro[2,3-b]pyridin-5-yl)pyrazolo[1,5-a]pyrimidine-3-carboxamide], for which the inhibitory constant (Ki) at human IRAK4 amounted to 0.033 µM.

(Values after patent publication US11434250B2, “Pyrazolo[1,5a]pyrimidine derivatives as IRAK4 modulators” (Genentech, Inc., priority 2017, dated 2022).)
